The subject of assay [1] is cellular H3K36me2 level in multiple myeloma cell line KMS11 (t(4;14)+). Kind of assay: H3K36me2 cellular FRET assay in KMS11-Par line. To be noted: FRET, read-out: H3K36me2 FRET in KMS11-Par. The format is cell-based. The procedure: H3K36Me2 Cellular FRET Assay in KMS11-Par Line
Fluorescence Resonance Energy Transfer (FRET) assay was used to test the ability of candidate compound to reduce cellular H3K36me2 level in multiple myeloma cell line KMS11 (t(4;14)+) (Horizon Discovery Ltd.).
Cells were treated with tested compounds at the desired concentration for 48 hours. […] Histone extract was incubated with Eu labeled anti-H3K36me2 antibody (abcam #ab ab9049) and d2 labeled anti-H3 antibody (abcam #ab1791) for 1 hour at room temperature. A Eu labeled anti-H3 antibody (CISBIO #64CUS000) was used for loading control. The abundancy of H3K36me2 or total H3 was measured by fluorescence signal on Perkin Elmer Envison machine.

Assay [2] addresses NSD2 [1-1365] (Homo sapiens (Human), UniProt O96028). The experiment in a line: LC-MS/MS-based NSD2 enzymatic assay (SAH production). The format is biochemical. To be noted: read-out: NSD2 IC50. The method, boiled down:
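SAH formed was measured by LC-MS/MS using d4-SAH as internal standard and an SAH calibration curve. Compounds were preincubated 20 min with NSD2 [1-1365] and SAM; mouse-liver nucleosome then started a 90 min room-temperature reaction (8 nM enzyme, 1 μM SAM, 400 nM nucleosome final, pH 8.0), stopped with TFA.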

[3] abbreviates: Homo sapiens, KMS-11, KMS11-Par line, cellular H3K36me2 level.
Where [4] appears, read: NSD2 biochemical activity, class symbols.
Where [5] appears, read: KMS11-Par line, cellular H3K36me2 level.

Our source for the IC50 values is patent US11420970B1 (NOVARTIS AG, priority 2019, dated 2022).

SMILES strings stand for the structures. Read-outs that look alike come from different tables or passages of the source.

NSD2 [1-1365], sequence (O96028 whole entry): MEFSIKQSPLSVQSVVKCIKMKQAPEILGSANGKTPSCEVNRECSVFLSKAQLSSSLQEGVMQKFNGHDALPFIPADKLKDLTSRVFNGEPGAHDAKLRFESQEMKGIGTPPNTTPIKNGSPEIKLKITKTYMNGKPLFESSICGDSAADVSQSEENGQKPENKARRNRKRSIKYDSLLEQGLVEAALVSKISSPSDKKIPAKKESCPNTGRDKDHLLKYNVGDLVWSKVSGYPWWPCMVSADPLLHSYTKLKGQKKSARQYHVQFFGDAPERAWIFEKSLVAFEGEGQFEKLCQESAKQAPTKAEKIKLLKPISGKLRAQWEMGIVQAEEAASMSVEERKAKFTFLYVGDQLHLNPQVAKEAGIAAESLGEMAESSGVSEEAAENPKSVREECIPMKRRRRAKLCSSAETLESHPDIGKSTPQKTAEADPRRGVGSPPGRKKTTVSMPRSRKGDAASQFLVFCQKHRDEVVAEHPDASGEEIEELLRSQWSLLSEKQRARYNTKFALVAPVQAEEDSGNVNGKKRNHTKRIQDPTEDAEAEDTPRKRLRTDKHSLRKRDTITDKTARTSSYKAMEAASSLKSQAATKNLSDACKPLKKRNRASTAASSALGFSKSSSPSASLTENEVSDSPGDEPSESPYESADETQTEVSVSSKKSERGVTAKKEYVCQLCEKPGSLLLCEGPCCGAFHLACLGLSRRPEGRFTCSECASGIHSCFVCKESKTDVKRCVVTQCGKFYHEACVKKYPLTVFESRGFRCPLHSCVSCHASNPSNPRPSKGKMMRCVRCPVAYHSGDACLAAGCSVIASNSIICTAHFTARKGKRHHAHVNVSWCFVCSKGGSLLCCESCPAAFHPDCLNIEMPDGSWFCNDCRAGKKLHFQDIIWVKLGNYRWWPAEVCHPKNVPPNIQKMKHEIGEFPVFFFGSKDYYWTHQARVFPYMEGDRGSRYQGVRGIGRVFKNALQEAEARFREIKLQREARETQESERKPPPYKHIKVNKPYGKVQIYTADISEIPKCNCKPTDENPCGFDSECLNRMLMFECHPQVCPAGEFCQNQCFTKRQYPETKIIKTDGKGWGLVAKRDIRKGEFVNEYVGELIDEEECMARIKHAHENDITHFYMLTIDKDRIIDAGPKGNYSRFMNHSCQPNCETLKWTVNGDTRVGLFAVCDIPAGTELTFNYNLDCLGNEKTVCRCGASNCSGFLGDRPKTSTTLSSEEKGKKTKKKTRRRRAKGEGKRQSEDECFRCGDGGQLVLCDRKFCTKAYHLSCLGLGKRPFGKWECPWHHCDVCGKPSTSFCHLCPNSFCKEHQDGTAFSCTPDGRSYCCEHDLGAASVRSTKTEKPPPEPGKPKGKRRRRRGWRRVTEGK

Turning to `CN(C)C(=O)C[C@@]1(N)CCCN(c2cnc(-c3cccc(F)c3)cc2Cn2cnc3c(N)ncnc32)C1` [Example 70, (S)-2-(3-amino-1-(4-((6-amino-9H-purin-9-yl)methyl)-6-(3-fluorophenyl)pyridin-3-yl)piperidin-3-yl)-N,N-dimethylacetamide], the IC50 in assay [1] (setting [3]) is 9440 nM; in assay [2] (setting [4]), 10 to 1000 nM.
Consider `COC[C@@H]1[C@H](N)CCCN1c1cnc(-c2ccc(C#N)c(F)c2)cc1Cn1cnc2c(N)ncnc21` [Example 9], for which the IC50 in assay [1] (setting [3]) was 9900 nM; in assay [2] (setting [4]), 10 to 1000 nM.
Turning to `COc1ccc(-c2cc(Cn3cnc4c(N)ncnc43)c(N3CCC[C@@H](N)C3)cn2)c(F)c1` [Example 6, (R)-9-((5-(3-aminopiperidin-1-yl)-2-(2-fluoro-4-methoxyphenyl)pyridin-4-yl)methyl)-9H-purin-6-amine], the IC50 in assay [1] (setting [3]) is 10000 nM; in assay [2] (setting [4]), 10 to 1000 nM.
For `COc1ccc(-c2cc(Cn3cnc4c(N)ncnc43)c(N3CC[C@@H](F)[C@@H](N)C3)cn2)c(F)c1` [Example 10, 9-((5-((3S,4R)-3-amino-4-fluoropiperidin-1-yl)-2-(2-fluoro-4-methoxyphenyl)pyridin-4-yl)methyl)-9H-purin-6-amine], in that order: 7630 nM and 10 to 1000 nM.
Take `COC(=O)[C@@]1(N)CCCN(c2cnc(-c3cccc(F)c3)cc2Cn2cnc3c(N)ncnc32)C1` [Example 79, methyl (R)-3-amino-1-(4-((6-amino-9H-purin-9-yl)methyl)-6-(3-fluorophenyl)pyridin-3-yl)piperidine-3-carboxylate]: the IC50 in assay [1] (setting [3]) was 473 nM; in assay [2] (setting [4]) it was 1 to 10 nM.
As for `CSCC1(N)CCCN(c2cnc(-c3ccc(F)c(F)c3)cc2Cn2cnc3c(N)ncnc32)C1` (centres unmarked) [Example 297, 9-((5-(3-amino-3-((methylthio)methyl)piperidin-1-yl)-2-(3,4-difluorophenyl)pyridin-4-yl)methyl)-9H-purin-6-amine], the IC50 in assay [1] (Homo sapiens, KMS-11, KMS11-Par line) was 2350 nM; in assay [2] it was 10 to 1000 nM.
For the compound `Nc1ncnc2c1ncn2Cc1cc(-c2cccc(F)c2)ncc1N1CCC[C@](N)(COC(F)F)C1` [Example 40, (R)-9-((5-(3-amino-3-((difluoromethoxy)methyl)piperidin-1-yl)-2-(3-fluorophenyl)pyridin-4-yl)methyl)-9H-purin-6-amine], the IC50 is 770 nM in assay [1] (setting [3]) and 10 to 1000 nM in assay [2] (setting [4]).
Consider `COC[C@@]1(N)CCCN(c2cnc(-c3ccc(OC)c(F)c3)cc2Cn2cnc3c(N)ncnc32)C1` [Example 46], for which the IC50 was 315 nM in assay [1] (setting [5]) and 1 to 10 nM in assay [2] (setting [4]).
Regarding `COC[C@@]1(N)CCCN(c2cnc(-c3ccc(OC)c(F)c3)cc2Cn2cnc3c(N)ncnc32)C1` [Example 38, (R)-9-((5-(3-amino-3-(methoxymethyl)piperidin-1-yl)-2-(3-fluoro-4-methoxyphenyl)pyridin-4-yl)methyl)-9H-purin-6-amine], the IC50 in assay [1] (setting [5]) is 721 nM; in assay [2] (setting [4]), 10 to 1000 nM.
As to `Nc1ncnc2c1ncn2Cc1cc(-c2cccc(F)c2)ncc1N1CCC(F)(F)C(N)C1` (centres unmarked) [Example 17, 9-((5-(3-amino-4,4-difluoropiperidin-1-yl)-2-(3-fluorophenyl)pyridin-4-yl)methyl)-9H-purin-6-amine], the results for the IC50 in assay [1] (setting [3]) and in assay [2] (setting [4]) were 154000 nM and more than 1000 nM, respectively.
On to `COC[C@@]1(N)CCCN(c2cnc(-c3cccc(F)c3)cc2Cn2cnc3c(N)ncnc32)C1` [Example 24, (R)-9-((5-(3-amino-3-(methoxymethyl)piperidin-1-yl)-2-(3-fluorophenyl)pyridin-4-yl)methyl)-9H-purin-6-amine], for which the IC50 is 451 nM in assay [1] (setting [3]) and 1 to 10 nM in assay [2] (setting [4]).
Consider `COc1ccc(-c2cc(Cn3cnc4c(N)ncnc43)c(N3CCC[C@](N)(C(=O)OC(C)C)C3)cn2)cc1F` [Example 81, isopropyl (R)-3-amino-1-(4-((6-amino-9H-purin-9-yl)methyl)-6-(3-fluoro-4-methoxyphenyl)pyridin-3-yl)piperidine-3-carboxylate], for which the IC50 in assay [1] (setting [3]) is 115 nM; in assay [2] (setting [4]), 1 to 10 nM.
For `CNC(=O)CC1(N)CCCN(c2cnc(-c3ccc(F)c(F)c3)cc2Cn2cnc3c(N)ncc(Cl)c32)C1` (centres unmarked) [Example 67, 2-(3-amino-1-(4-((4-amino-7-chloro-1H-imidazo[4,5-c]pyridin-1-yl)methyl)-6-(3,4-difluorophenyl)pyridin-3-yl)piperidin-3-yl)-N-methylacetamide], the IC50 in assay [1] (setting [3]) was 4250 nM; in assay [2] (setting [4]), 10 to 1000 nM.
On to `Nc1ncnc2c1ncn2Cc1cc(-c2ccccc2F)ncc1N1CC[C@@H](F)[C@@H](N)C1` [Example 2, 9-((5-((3S,4R)-3-amino-4-fluoropiperidin-1-yl)-2-(2-fluorophenyl)pyridin-4-yl)methyl)-9H-purin-6-amine], for which the IC50 in assay [1] (setting [3]) was 11100 nM; in assay [2] (setting [4]) it was 10 to 1000 nM.
Turning to `COc1ccc(-c2cc(Cn3cnc4c(N)ncnc43)c(N3CCC[C@@H](N)C3)cn2)cc1` [Example 11, (R)-9-((5-(3-aminopiperidin-1-yl)-2-(4-methoxyphenyl)pyridin-4-yl)methyl)-9H-purin-6-amine], the IC50 was 11200 nM in assay [1] (setting [3]) and 10 to 1000 nM in assay [2] (setting [4]).
In the same order, the values of `Nc1ncnc2c1ncn2Cc1cc(-c2ccc(F)cc2)ncc1N1CCC[C@](N)(COC(F)F)C1` [Example 44, (R)-9-((5-(3-amino-3-((difluoromethoxy)methyl)piperidin-1-yl)-2-(4-fluorophenyl)pyridin-4-yl)methyl)-9H-purin-6-amine] are 1620 nM and 10 to 1000 nM.
For `Nc1ncnc2c1ncn2Cc1cc(-c2ccc(F)cc2)ncc1N1CCC[C@](N)(CC(F)F)C1` [Example 71, (S)-9-((5-(3-amino-3-(2,2-difluoroethyl)piperidin-1-yl)-2-(4-fluorophenyl)pyridin-4-yl)methyl)-9H-purin-6-amine], in that order: 849 nM and 10 to 1000 nM.
In the case of `COC[C@@]1(N)CCCN(c2cnc(-c3ccc(F)cc3F)cc2Cn2cnc3c(N)ncnc32)C1` [Example 29, (R)-9-((5-(3-amino-3-(methoxymethyl)piperidin-1-yl)-2-(2,4-difluorophenyl)pyridin-4-yl)methyl)-9H-purin-6-amine], the IC50 in assay [1] (setting [3]) was 225 nM; in assay [2] (setting [4]) it was 1 to 10 nM.
In the case of `Nc1ncnc2c1ncn2Cc1cc(-c2ccc(F)cc2)ncc1N1CCC[C@](N)(COCC(F)(F)F)C1` [Example 45, (R)-9-((5-(3-amino-3-((2,2,2-trifluoroethoxy)methyl)piperidin-1-yl)-2-(4-fluorophenyl)pyridin-4-yl)methyl)-9H-purin-6-amine], the IC50 in assay [1] (setting [3]) is 705 nM; in assay [2] (setting [4]), 10 to 1000 nM.
On to `Nc1ncnc2c1ncn2Cc1cc(-c2cccc(Cl)c2)ncc1N1CC[C@@H](F)[C@@H](N)C1` [Example 12, 9-((5-((3S,4R)-3-amino-4-fluoropiperidin-1-yl)-2-(3-chlorophenyl)pyridin-4-yl)methyl)-9H-purin-6-amine], for which the IC50 in assay [1] (setting [3]) was 12200 nM; in assay [2] (setting [4]), 10 to 1000 nM.
In the case of `CC(C)OC[C@@]1(N)CCCN(c2cnc(-c3ccc(F)c(F)c3)cc2Cn2cnc3c(N)ncnc32)C1` [Example 34, (R)-9-((5-(3-amino-3-(isopropoxymethyl)piperidin-1-yl)-2-(3,4-difluorophenyl)pyridin-4-yl)methyl)-9H-purin-6-amine], the IC50 is 1030 nM in assay [1] (setting [3]) and 1 to 10 nM in assay [2] (setting [4]).
As to `Nc1ncnc2c1ncn2Cc1cc(-c2ccc(F)cc2)ncc1N1CCC[C@](N)(COC2CCC2)C1` [Example 36, (R)-9-((5-(3-amino-3-(cyclobutoxymethyl)piperidin-1-yl)-2-(4-fluorophenyl)pyridin-4-yl)methyl)-9H-purin-6-amine], the IC50 in assay [1] (setting [3]) is 416 nM; in assay [2] (setting [4]), 10 to 1000 nM.
On to `COc1ccc(-c2cc(Cn3cnc4c(N)ncnc43)c(N3CCC[C@](N)(COC(C)C)C3)cn2)cc1F` [Example 25, (R)-9-((5-(3-amino-3-(isopropoxymethyl)piperidin-1-yl)-2-(3-fluoro-4-methoxyphenyl)pyridin-4-yl)methyl)-9H-purin-6-amine], for which the IC50 in assay [1] (setting [3]) was 995 nM; in assay [2] (setting [4]), 1 to 10 nM.
On to `Nc1ncnc2c1ncn2Cc1cc(-c2ccc(F)c(F)c2)ncc1N1CCC[C@](N)(COCC(F)(F)F)C1` [Example 43, (R)-9-((5-(3-amino-3-((2,2,2-trifluoroethoxy)methyl)piperidin-1-yl)-2-(3,4-difluorophenyl)pyridin-4-yl)methyl)-9H-purin-6-amine], for which the results for the IC50 in assay [1] (setting [3]) and in assay [2] (setting [4]) were 1240 nM and 10 to 1000 nM, respectively.
For `CN(C)C(=O)C[C@@]1(N)CCCN(c2cnc(-c3ccc(F)c(F)c3)cc2Cn2cnc3c(N)nccc32)C1` [Example 59, (S)-2-(3-amino-1-(4-((4-amino-1H-imidazo[4,5-c]pyridin-1-yl)methyl)-6-(3,4-difluorophenyl)pyridin-3-yl)piperidin-3-yl)-N,N-dimethylacetamide], in that order: 33300 nM and 1 to 10 nM.
